This note sets out measurements from EP4755892A1, “KINESIN KIF18A INHIBITOR AND USE THEREOF” (Shanghai Apeiron Therapeutics Company Limited, priority 2023, dated 2025).

Assay [1] concerns the target T1, Human KIF18A (amino acid sequence 1-417) (Homo sapiens, UniProt Q8NI77).
T1 construct: purchased Viva Biotech (Shanghai) Ltd
T1 sequence (Q8NI77 1-417): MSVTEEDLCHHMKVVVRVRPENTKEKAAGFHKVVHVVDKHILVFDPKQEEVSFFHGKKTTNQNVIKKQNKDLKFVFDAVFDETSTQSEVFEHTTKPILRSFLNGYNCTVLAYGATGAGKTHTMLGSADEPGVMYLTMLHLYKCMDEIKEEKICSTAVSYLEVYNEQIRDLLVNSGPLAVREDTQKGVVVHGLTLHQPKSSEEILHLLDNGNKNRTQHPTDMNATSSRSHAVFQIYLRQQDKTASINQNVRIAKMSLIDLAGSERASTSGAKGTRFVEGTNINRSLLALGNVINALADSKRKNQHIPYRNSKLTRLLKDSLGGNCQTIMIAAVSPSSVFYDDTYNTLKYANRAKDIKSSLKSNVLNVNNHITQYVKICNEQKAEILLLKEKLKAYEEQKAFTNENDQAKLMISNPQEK
In words: Enzymatic Activity Test (ADP-Glo, microtubule-stimulated KIF18A ATPase). The class given is biochemical. The settings on record: 60 µg/mL microtubules, 25 µM ATP, 2.5 nM KIF18A protein, 120 min at ambient temperature, chemiluminescence; read-out: KIF 18A IC50. The procedure: Assay 1: Enzymatic Activity Test
Materials: Human KIF18A (amino acid sequence 1-417) was purchased from Viva Biotech (Shanghai) Ltd.; the ADP-Glo™ protein kinase kit was acquired from Promega, USA; tubulin was sourced from Cytoskeleton, USA; and the 384-well assay plate and Envision multifunctional microplate reader were obtained from PerkinElmer, USA.
Enzymatic Activity Test: The compound powder was dissolved in DMSO to prepare a stock solution of 10 mM. Then gradient dilution was performed for the compounds in the microplate to achieve a final concentration of 0-10 µM. Then, 2.5 µL each of tubulin, compound, ATP, and KIF18A protein were added to the microplate in sequence for reaction at ambient temperature for 120 min. The final concentrations in the enzyme reaction were 60 µg/mL for microtubules, 25 µM for ATP, and 2.5 nM for KIF18A protein. After the enzyme reaction, 10 µL of ADP-GLO reaction reagent was added to each well and incubated at room temperature for 30 min. After that, 20 µL of detection reagent was added to each well and incubated at room temperature for 30 min in the dark. Finally, chemiluminescence detection was performed using the PerkinElmer Envision.

For assay [2], the system named is OVCAR3 cells. In words: Cell Proliferation Activity Test (CyQUANT Direct), OVCAR3. The settings on record: compound 0-10 µM, 3 days, 0.2% DMSO, CyQUANT fluorescence, read-out: OVCAR-3 _IC50_nM. The class given is cell-based. The procedure:
Assay 2: Cell Proliferation Activity Test
Materials and Cells: OVCAR3 cells were purchased from Nanjing Cobioer Biosciences Co., Ltd. RPMI-1640 medium, fetal bovine serum, and the CyQUANT Direct Cell Proliferation Assay kit were purchased from Thermo Fisher Scientific, USA; 96-well cell culture plates were sourced from Coming, USA.
Cell Culture: OVCAR3 cells were cultured with RPMI-1640 medium containing 10% fetal bovine serum and incubated in a 5% CO2 incubator at 37°C. Only cells in the logarithmic growth phase could be used for the test.
Cell Proliferation Activity Test:
OVCAR3 cells were inoculated into a 96-well cell culture plate at 90 µL per well and incubated overnight in a 5% CO2 incubator at 37°C. The compound powder was dissolved in DMSO to prepare a stock solution of 10 mM. Then gradient dilution was performed for the compounds in the microplate to achieve a final concentration of 0-10 µM. 10 µL of cell culture medium containing compounds was added to each well to make the final DMSO content 0.2%. The cell plates were incubated in a 5% CO2 incubator at 37°C for 3 days. 100 µL of CyQUANT detection reagent was added to each well, reacted at 37°C for 60 min, and fluorescence detection was performed using the PerkinElmer Envision.

Assay [3] concerns HT29 cells. In words: CyQuant Cell Proliferation Activity Test, HT29. The class given is cell-based. The settings on record: HT29 cells 2000 per well, initial concentration 3000 nM, 3-fold dilution, 3 days, 0.2% DMSO, read-out: HT29_IC50 _nM. As to the method: Assay 3: CyQuant Cell Proliferation Activity Test
Materials and Cells: HT29 cells were purchased from Nanjing Cobioer Biosciences Co., Ltd.; RPMI-1640 medium, fetal bovine serum, Trypsin-EDTA (0.25%), 96-well plates, and CyQuant reagents were purchased from ThermoFisher (USA); DMSO was purchased from SIGMA (USA).
Cell Culture: HT29 cells were cultured with RPMI-1640 containing 10% fetal bovine serum under the condition of 37°C and 5% CO2. Only cells in the logarithmic growth phase could be used for the test.
Cell Proliferation Activity Test: CyQuant reagent was used to detect the proliferation inhibitory activity of compounds on HT29 cells. The cell density was adjusted, and 100 µL per well was inoculated into a 96-well plate (HT29 at 2000 cells per well), then incubated overnight at 37°C and 5% CO2. Add compounds of various target concentrations (initial concentration of 3000 nM, 3-fold dilution, 9 concentration gradients), and make the DMSO content 0.2%. The cell plate was incubated at 37°C in 5% CO2 for 3 days. CyQuant reagent was added and incubated for 1 h. The plates were read by Envision, and IC50 was calculated using XLFIT.

Like-named read-outs stand apart in the source and are kept apart here. A value given as a limit tells only on which side of the number the result lay.

For the compound `Cc1cc2nc(n1)N1CCC(F)(F)C(C=CCC3CCN(CC3)c3cc(NS(=O)(=O)CCO)ccc3C(=O)N2)C1` (stereo not drawn) [Example 18B, N-(1^3R,E)-1^4,1^4-difluoro-2^6-methyl-4-oxo-3-aza-2(2,4)-pyrimidin-1(1,3),6(1,4)-dip iperidin-5(1,2)-benzeneheterocyclononane-8-en-5^4-yl)-2-hydroxyethane-1-sulfonamide], the values for the IC50 in assay [1], in assay [2] and in assay [3] were 0.046 µM, 0.012 µM and 0.016 µM, respectively.
For `Cc1cc2nc(n1)N1CCC(F)(F)C(C=CCC3CCN(CC3)c3cc(NS(=O)(=O)CCO)ccc3C(=O)N2)C1` (stereo not drawn) [Example 18C, N-((1^3S,Z)-1^4,1^4-difluoro-2^6-methyl-4-oxo-3-aza-2(2,4)-pyrimidin-1(1,3),6(1,4)-dipiperidin-5(1,2)-benzeneheterocyclononane-8-en-5^4-yl)-2-hydroxyethane-1-sulfonamide] the same measures were 0.041 µM, 0.029 µM and 0.031 µM.
The like results for `Cc1cc2nc(n1)N1CCC(F)(F)C(C=CCC3CCN(CC3)c3cc(NS(=O)(=O)CCO)ccc3C(=O)N2)C1` (stereo not drawn) [Example 18D, N-((1^3R,Z)-1^4,1^4-difluoro-2^6-methyl-4-oxo-3-aza-2(2,4)-pyrimidin-1(1,3),6(1,4)-dipiperidin-5(1,2)-benzeneheterocyclononane-8-en-5^4-yl)-2-hydroxyethane-1-sulfon amide] were, in that order, 0.345 µM, 0.458 µM and 0.66 µM.
As to `Cc1cc2nc(n1)N1CCC(F)(F)C(CC=CC3CCN(CC3)c3cc(NS(=O)(=O)CCO)ccc3C(=O)N2)C1` (stereo not drawn) [Example 19, (E)-N-(1^4,1^4-difluoro-2^6-methyl-4-oxo-3-aza-2(2,4)-pyrimidin-1(1,3),6(1,4)-dipiperidin-5(1,2)-benzeneheterocyclonon-7-en-5^4-yl)-2-hydroxyethane-1-sulfonamide], the IC50 in assay [1] came to 0.184 µM; in assay [2] (Homo sapiens, OVCAR-3, 72 h), 0.703 µM; in assay [3] (Homo sapiens, HT-29, 72 h), 0.644 µM.
The like results for `Cc1cc2nc(n1)N1CCC(F)(F)C(CCC=C3CCN(CC3)c3cc(NS(=O)(=O)CCO)ccc3C(=O)N2)C1` (stereo not drawn) [Example 20, N-(1^4,1^4-difluoro-2^6-methyl-4-oxo-3-aza-2(2,4)-pyrimidin-1(1,3),6(1,4)-dipiperidin-5(1,2)-benzeneheterocyclononane-5^4-yl)-2-hydroxyethane-1-sulfonamide] were, in that order, 2.92 µM, greater than 3 µM and greater than 3 µM.
The like results for `Cc1cc2nc(n1)N1CCC(F)(F)C(=CCCC3CCN(CC3)c3cc(NS(=O)(=O)CCO)ccc3C(=O)N2)C1` [Example 21, N-(1^4,1^4-difluoro-2^6-methyl-4-oxo-3-aza-2(2,4)-pyrimidin-1(1,3),6(1,4)-dipiperidin-5(1,2)-benzeneheterocyclonon-9-en-5^4-yl)-2-hydroxyethane-1-sulfonamide] were, in that order, 0.305 µM, 0.744 µM and 0.703 µM.
For `Cc1cc2nc(n1)N1CCC(F)(F)C(CCCC3CCN(CC3)c3cc(NS(=O)(=O)CCO)ccc3C(=O)N2)C1` (stereo not drawn) [Example 23, N-(1^4,1^4-difluoro-2^6-methyl-4-oxo-3-aza-2(2,4)-pyrimidin-1(1,3),6(1,4)-dipiperidin-5(1,2)-benzeneheterocyclononane-5^4-yl)-2-hydroxyethane-1-sulfonamide], the IC50 in assay [1] stood at 0.102 µM; in assay [2] it was 0.052 µM; in assay [3] it was 0.047 µM.
The like results for `Cc1cc2nc(n1)N1CCC(F)(F)C(CCCC3CCN(CC3)c3cc(NS(=O)(=O)CCO)ccc3C(=O)N2)C1` (stereo not drawn) [Example 23A, N-((1^3S)-1^4,1^4-difluoro-2^6-methyl-4-oxo-3-aza-2(2,4)-pyrimidin-1(1,3),6(1,4)-dipiperidin-5(1,2)-benzeneheterocyclononane-5^4-yl)-2-hydroxyethane-1-sulfonamide] were, in that order, 0.522 µM, 0.662 µM and 0.688 µM.
The like results for `Cc1cc2nc(n1)N1CCC(F)(F)C(CCCC3CCN(CC3)c3cc(NS(=O)(=O)CCO)ccc3C(=O)N2)C1` (stereo not drawn) [Example 23B, N-((1^3R)-1^4,1^4-difluoro-2^6-methyl-4-oxo-3-aza-2(2,4)-pyrimidin-1(1,3),6(1,4)-dipiperidin-5(1,2)-benzeneheterocyclononane-5^4-yl)-2-hydroxyethane-1-sulfonamide] were, in that order, 0.0715 µM, 0.028 µM and 0.032 µM.
Take `COc1cc2nc(n1)N1CCC(F)(F)C(C=CCC3CCN(CC3)c3cc(NS(=O)(=O)CCO)ccc3C(=O)N2)C1` (stereo not drawn) [Example 24, (Z)-N-(1^4,1^4-difluoro-2^6-methoxy-4-oxo-3-aza-2(2,4)-pyrimidin-1(1,3),6(1,4)-dipiperidin-5(1,2)-benzeneheterocyclonon-8-en-5^4-yl)-2-hydroxyethane-1-sulfonamide]: the IC50 was found to be 0.158 µM in assay [1]; 0.046 µM in assay [2] (Homo sapiens, OVCAR-3, 72 h); 0.063 µM in assay [3] (Homo sapiens, HT-29, 72 h).
For `Cc1cc2nc(n1)N1CCOC(C=CCC3CCN(CC3)c3cc(NS(=O)(=O)CCO)ccc3C(=O)N2)C1` (stereo not drawn) [Example 25, 2-Hydroxy-N-((1^2S)-2^6-methyl-4-oxo-3-aza-1(4,2)-morpholin-2(2,4)-pyrimidin-6(1,4)-piperidin-5(1,2)-benzeneheterocyclonon-8-en-5^4-yl)ethane-1-sulfonamide] the same measures were 0.013 µM, 0.0085 µM and 0.0109 µM.
For `Cc1cc2nc(n1)N1CCCC(C1)C(=O)NCC1CCN(CC1)c1cc(NS(=O)(=O)CCO)ccc1C(=O)N2` (stereo not drawn) [Example 27, N-(2^6-methyl-4,9-dioxo-3,8-diaza-2(2,4)-pyrimidin-1(1,3),6(1,4)-dipiperidin-5(1,2) -benzeneheterocyclononane-5^4-yl)-2-hydroxyethane-1-sulfonamide] the same measures were 0.265 µM, 1.48 µM and greater than 3 µM.
For `Cc1cc2nc(n1)N1CCCC(COCC3CCN(CC3)c3cc(NS(=O)(=O)CCO)ccc3C(=O)N2)C1` (stereo not drawn) [Example 28, 2-Hydroxy-N-(2^6-methyl-4-oxo-8-oxa-3-aza-2(2,4)-pyrimidin-1(1,3),6(1,4)-dipiperidin-5(1,2)-benzeneheterocyclononane-5^4-yl)ethane-1-sulfonamide] the same measures were 0.229 µM, 0.506 µM and 0.639 µM.
